# Test results reported in publication PMC6045597, “Probiotics in human gut microbiota can degrade host glycosaminoglycans” (Scientific Reports, 2018).
# How the values were obtained:
# Experiment in all cases: coupled NADH oxidation at […] nm
# Type in all cases: biochemical
# [1] = target: T1, KduI (Lacticaseibacillus rhamnosus, UniProt C2JUP1); conditions: isomerase coupled with reductase DhuD or KduD; DHU prepared from unsaturated chondroitin disaccharide (6-sulfate) with UGL
# T1 construct: recombinant, expressed in E. coli, purified to homogeneity; encoded in GAG genetic cluster
# T1 sequence (C2JUP1 1-281): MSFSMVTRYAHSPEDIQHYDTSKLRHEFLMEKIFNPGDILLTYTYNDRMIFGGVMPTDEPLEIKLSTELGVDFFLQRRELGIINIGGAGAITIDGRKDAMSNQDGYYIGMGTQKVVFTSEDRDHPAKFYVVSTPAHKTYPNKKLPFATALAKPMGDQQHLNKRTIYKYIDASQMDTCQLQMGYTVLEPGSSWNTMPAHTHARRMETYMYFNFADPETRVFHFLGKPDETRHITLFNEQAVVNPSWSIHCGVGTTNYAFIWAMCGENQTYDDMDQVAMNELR
# [2] = target: T2, DhuI (Streptococcus agalactiae, UniProt Q8DXE6); conditions: reference isomerase, coupled with reductase DhuD or KduD; DHU prepared with UGL
# T2 construct: gene SAG1905; purified protein
# T2 sequence (Q8DXE6 1-212): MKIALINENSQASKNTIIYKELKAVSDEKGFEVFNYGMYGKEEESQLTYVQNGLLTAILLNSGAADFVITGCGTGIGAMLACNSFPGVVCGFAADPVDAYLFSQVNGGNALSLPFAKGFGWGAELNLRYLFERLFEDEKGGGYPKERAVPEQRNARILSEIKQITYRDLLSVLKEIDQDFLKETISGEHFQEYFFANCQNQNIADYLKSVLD
# [3] = target: T3, KduD (Lacticaseibacillus rhamnosus, UniProt A0A0E3CKR8); conditions: DK-II formed in situ from DHU by KduI or DhuI
# T3 construct: recombinant, expressed in E. coli, purified to homogeneity; encoded in GAG genetic cluster
# T3 sequence (A0A0E3CKR8 23-274): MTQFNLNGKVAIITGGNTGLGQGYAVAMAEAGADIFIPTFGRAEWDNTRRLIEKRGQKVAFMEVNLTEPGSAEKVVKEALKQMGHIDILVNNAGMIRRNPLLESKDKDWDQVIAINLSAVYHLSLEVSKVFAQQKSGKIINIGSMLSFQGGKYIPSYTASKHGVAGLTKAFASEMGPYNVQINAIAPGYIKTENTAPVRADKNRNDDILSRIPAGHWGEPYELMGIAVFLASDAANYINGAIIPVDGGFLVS
# [4] = target: T4, DhuD (Streptococcus agalactiae, UniProt Q8E370); conditions: reference reductase, DK-II formed in situ from DHU by DhuI or KduI
# T4 construct: gene gbs1891; purified protein
# T4 sequence (Q8E370 1-270): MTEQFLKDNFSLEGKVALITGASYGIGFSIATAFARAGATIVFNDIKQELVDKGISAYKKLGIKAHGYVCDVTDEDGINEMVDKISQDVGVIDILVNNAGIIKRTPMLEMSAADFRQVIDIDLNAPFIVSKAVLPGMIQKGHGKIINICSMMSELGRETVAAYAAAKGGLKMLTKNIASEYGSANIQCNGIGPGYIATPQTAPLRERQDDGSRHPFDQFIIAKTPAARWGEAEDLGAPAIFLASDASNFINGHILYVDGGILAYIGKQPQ
SMILES,coupled NADH oxidation at 340 nm [1],coupled NADH oxidation at 340 nm [2],coupled NADH oxidation at 340 nm [3],coupled NADH oxidation at 340 nm [4]
"O=C[C@H](O)[C@@H](O)CC(=O)C(=O)O [DHU, 4-deoxy-l-threo-5-hexosulose-uronic acid]",KduI catalyses the isomerase reaction from DHU to DK-II,successive reaction of isomerase (DhuI or KduI) and reductase (DhuD or KduD),,
NC(=O)C1=CN([C@@H]2O[C@H](COP(=O)(O)OP(=O)(O)OC[C@H]3O[C@@H](n4cnc5c(N)ncnc54)[C@H](O)[C@@H]3O)[C@@H](O)[C@H]2O)C=CC1 [NADH],,,further reduced to KDG by NADH-dependent reductase KduD,
"O=C(O)C(=O)C[C@H](O)C(=O)CO [DK-II, 3-deoxy-d-glycero-2,5-hexodiulosonic acid]",,,"DK-II, which is further reduced to KDG by NADH-dependent reductase KduD",successive reaction of isomerase (DhuI or KduI) and reductase (DhuD or KduD)
